One sequence from patent US9006396B2, “CsPCNA isoform antibodies and uses thereof” (priority 2005, dated 2015) can be followed below.

Experiment [1] concerns the target Ab126 capture of the csPCNA isoform present in recombinant PCNA (Homo sapiens, UniProt P12004). Put plainly: Sandwich ELISA with Ab126 capture antibody and competing peptide. The format is binding. The note with it: Ab126 capture 1 μg/well, C20 detection; peptide 0.024-2400 ng/well; FIG. 15B. The protocol: (§1) A sandwich ELISA was performed in which either the csPCNA specific Ab126 antibody (1 μg/well) or the non-specific PCNA antibody C20 (1 μg/well) was immobilized to the ELISA plate, and used to capture the recombinant PCNA used in the assay. Residual binding sites on the ELISA plate were blocked with BSA, and recombinant PCNA was incubated with the immobilized capture antibody in the presence of a range of concentrations of competing peptide (UMPB6—(0.024 ng/well-2400 ng/well)). After washing off unbound PCNA, the bound protein was detected with the C20 antibody in the first case, and with Ab126 in the second case. These detection antibodies were added to each well of the ELISA plate. The appropriate alkaline phosphatase conjugated secondary anti-rabbit or anti-goat IgG antibody was incubated with the bound antibody in each of the ELISA plate wells, and after washing away non-specifically bound antibody with PBS-0.05% Tween 20, the amount of detection antibody bound to the captured PCNA was determined by incubating the secondary antibody remaining in each well with 1 mg/ml of p-nitrophenolphosphate for 30 minutes.
For orientation: In an ELISA, binding on a coated surface is turned into a signal by an enzyme label.

Experiment [2] deals with C20 antibody capture of recombinant PCNA (Homo sapiens, UniProt P12004). Put plainly: Sandwich ELISA with C20 capture antibody and competing peptide. Type of experiment: binding. The note with it: C20 capture 1 μg/well, Ab126 detection; peptide 0.024-2400 ng/well; FIG. 15B. The protocol: as §1

Where no end group is shown, it is not given here.

Sequence of Ab126 capture of the csPCNA isoform present in recombinant PCNA (P12004 whole entry, canonical isoform): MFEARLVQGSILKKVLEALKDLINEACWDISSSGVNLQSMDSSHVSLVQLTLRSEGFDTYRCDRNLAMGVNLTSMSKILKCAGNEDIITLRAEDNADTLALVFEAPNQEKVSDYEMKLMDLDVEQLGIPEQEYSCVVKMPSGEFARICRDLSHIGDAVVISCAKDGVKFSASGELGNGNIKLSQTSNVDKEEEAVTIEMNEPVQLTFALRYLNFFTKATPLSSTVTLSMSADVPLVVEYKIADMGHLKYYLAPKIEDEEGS
Sequence of C20 antibody capture of recombinant PCNA (P12004 whole entry): as the sequence (P12004 whole entry, canonical isoform) above

For LGIPEQEY [UMPB6], the “apparent IC50 for competing for the capture antibody” value in experiment [1] is “over 1 μg/well”. Also, in experiment [2], the “effect on ability of C20 antibody to capture recombinant PCNA” value is given as “no detectable effect”.
